Measurements: PubChem BioAssay (NCI)
Several values for one entry are separate records, joined by “and”; a condition that tells them apart may be missing. Equal entries are not always repeated.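 These data come from cells grown in 96-well plates and exposed to compound for 48 hours at five concentrations. GI50 marks 50% less growth. The concentration for full growth arrest is given as TGI.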

Tests used:
Test in all cases: growth of human tumour cells (NCI), 48 h
HL-60(TB) leukemia = system: HL-60(TB) leukemia
OVCAR-4 ovarian = system: OVCAR-4 ovarian
HOP-62 NSCLC = system: HOP-62 NSCLC
UACC-257 melanoma = system: UACC-257 melanoma
SK-MEL-2 melanoma = system: SK-MEL-2 melanoma
SK-MEL-28 melanoma = system: SK-MEL-28 melanoma
DU-145 prostate = system: DU-145 prostate

COc1cc2c3c(cc(Cl)nc3c1OC)C(=O)C(=O)N2
TGI (HL-60(TB) leukemia): 3.56 µM | TGI (OVCAR-4 ovarian): 3.05 µM | TGI (HOP-62 NSCLC): 34.7 µM | TGI (UACC-257 melanoma): 21.9 µM | TGI (SK-MEL-2 melanoma): 27.6 µM | TGI (SK-MEL-28 melanoma): 33.7 µM | TGI (DU-145 prostate): 30.8 µM

NCCCCNCCCNC(=O)CNC(=O)CC(O)C(N)CCCC(NC(=O)C(CN)NC(=O)C(O)CNC(=O)CC(N)c1ccc(O)cc1)C(=O)O (centres undefined)
TGI (HL-60(TB) leukemia): > 10 µM | TGI (OVCAR-4 ovarian): > 10 µM | TGI (HOP-62 NSCLC): > 10 µM | TGI (UACC-257 melanoma): > 10 µM | TGI (SK-MEL-2 melanoma): > 10 µM | TGI (SK-MEL-28 melanoma): > 10 µM | TGI (DU-145 prostate): > 10 µM

CNC(=S)NNc1ncnc2c1c(-c1ccc(Cl)cc1)cn2-c1ccc(C)cc1
TGI (HL-60(TB) leukemia): > 100 µM | TGI (OVCAR-4 ovarian): 37.6 µM | TGI (HOP-62 NSCLC): 39.2 µM | TGI (UACC-257 melanoma): 27 µM | TGI (SK-MEL-2 melanoma): 27.7 µM | TGI (SK-MEL-28 melanoma): 25.2 µM | TGI (DU-145 prostate): 43.4 µM

N#Cc1nc(CCCN2C(=O)c3ccccc3C2=O)oc1N
TGI (OVCAR-4 ovarian): > 100 µM | TGI (HOP-62 NSCLC): > 100 µM | TGI (UACC-257 melanoma): > 100 µM | TGI (SK-MEL-2 melanoma): > 100 µM | TGI (SK-MEL-28 melanoma): > 100 µM | TGI (DU-145 prostate): > 100 µM

CCN(CCCCCCCCCCN1CC(=O)N(CCCCCCCCCCN(CC)Cc2ccccc2OC)CC1=O)Cc1ccccc1OC
GI50 (HL-60(TB) leukemia): 1.02 µM | TGI (HL-60(TB) leukemia): 3.6 µM | GI50 (OVCAR-4 ovarian): 1.77 µM | TGI (OVCAR-4 ovarian): 6.59 µM | GI50 (HOP-62 NSCLC): 1.56 µM | TGI (HOP-62 NSCLC): 3.05 µM | GI50 (UACC-257 melanoma): 1.7 µM | TGI (UACC-257 melanoma): 3.34 µM | GI50 (SK-MEL-28 melanoma): 1.75 µM | TGI (SK-MEL-28 melanoma): 3.22 µM | GI50 (DU-145 prostate): 1.39 µM | TGI (DU-145 prostate): 2.78 µM

Cc1nnc2n1-c1ccccc1N(Cc1ccccc1)CC2
TGI (HL-60(TB) leukemia): 60 µM | TGI (OVCAR-4 ovarian): > 100 µM | TGI (HOP-62 NSCLC): > 100 µM | TGI (UACC-257 melanoma): > 100 µM | TGI (SK-MEL-2 melanoma): > 100 µM | TGI (SK-MEL-28 melanoma): > 100 µM | TGI (DU-145 prostate): > 100 µM

COc1ccc(C2Oc3c(OC)cc(CCCO)cc3C2CO)cc1OC (centres undefined)
TGI (HL-60(TB) leukemia): > 100 µM | TGI (OVCAR-4 ovarian): > 100 µM | TGI (HOP-62 NSCLC): > 100 µM | GI50 (UACC-257 melanoma): 49.9 µM and 21.9 µM | TGI (UACC-257 melanoma): > 100 µM | TGI (SK-MEL-2 melanoma): > 100 µM | TGI (SK-MEL-28 melanoma): > 100 µM | TGI (DU-145 prostate): > 100 µM

CCN1CCN(Cc2ccc(NC(=O)Nc3ccc(-n4ccc5c(NC(=O)c6ccccc6)nccc54)cc3)cc2C(F)(F)F)CC1
GI50 (HL-60(TB) leukemia): 1.71 µM | TGI (HL-60(TB) leukemia): 7.91 µM | GI50 (SK-MEL-2 melanoma): 3.62 µM | TGI (SK-MEL-2 melanoma): > 100 µM | GI50 (SK-MEL-28 melanoma): 1.62 µM | TGI (SK-MEL-28 melanoma): 3.07 µM | GI50 (DU-145 prostate): 1.12 µM | TGI (DU-145 prostate): 2.34 µM

CCCCCCc1cc2cc(-c3csc(-c4ccc(OC)cc4)n3)c(=O)oc2cc1O
TGI (HL-60(TB) leukemia): > 100 µM | TGI (OVCAR-4 ovarian): 7.39 µM | TGI (HOP-62 NSCLC): 29.6 µM | TGI (UACC-257 melanoma): 32.6 µM | TGI (SK-MEL-2 melanoma): 32 µM | TGI (SK-MEL-28 melanoma): 24.6 µM | TGI (DU-145 prostate): 33.6 µM

Cc1cccc(NS(=O)(=O)c2ccc(N=Nc3c(O)c(C(=O)O)cc4ccccc34)cc2)n1
TGI (HL-60(TB) leukemia): > 100 µM | TGI (OVCAR-4 ovarian): > 100 µM | TGI (HOP-62 NSCLC): > 100 µM | TGI (UACC-257 melanoma): > 100 µM | TGI (SK-MEL-2 melanoma): > 100 µM | TGI (SK-MEL-28 melanoma): > 100 µM

C=C1C[C@@H]2CC[C@@]34C[C@H]5O[C@H]6[C@@H](O3)[C@H]3O[C@H](CC[C@@H]3O[C@H]6[C@H]5O4)CC(=O)C[C@@H]3[C@@H](OC)[C@@H](C[C@H](O)CN)O[C@H]3C[C@H]3O[C@@H](CC[C@@H]1O2)C[C@@H](C)C3=C
GI50 (HL-60(TB) leukemia): 0.000307 µM | TGI (HL-60(TB) leukemia): 0.00466 µM | TGI (OVCAR-4 ovarian): > 1 µM | TGI (HOP-62 NSCLC): > 1 µM | TGI (UACC-257 melanoma): > 1 µM | TGI (SK-MEL-2 melanoma): > 0.167 µM | TGI (SK-MEL-28 melanoma): > 1 µM | TGI (DU-145 prostate): 0.0241 µM

CCCCN1C(=O)CC2[C@@H]3CCc4cc(OC)ccc4C3CC[C@]2(C)C1=O (some centres undefined)
TGI (HL-60(TB) leukemia): > 10 µM | TGI (OVCAR-4 ovarian): > 10 µM | TGI (HOP-62 NSCLC): > 10 µM | TGI (UACC-257 melanoma): > 10 µM | TGI (SK-MEL-2 melanoma): > 10 µM | TGI (SK-MEL-28 melanoma): > 10 µM | TGI (DU-145 prostate): > 10 µM

O=C1/C(=C/c2ccncc2)C(n2cccc2)c2c(Br)sc(Br)c21 (centres undefined)
TGI (HL-60(TB) leukemia): 4.68 µM | TGI (HOP-62 NSCLC): 11.3 µM | TGI (UACC-257 melanoma): 5.03 µM | TGI (SK-MEL-2 melanoma): 6.56 µM | TGI (SK-MEL-28 melanoma): 8.73 µM | TGI (DU-145 prostate): 12.9 µM

COc1ccc(OC/C(N=Cc2ccncc2)=N/NC(=O)c2ccncc2)cc1
TGI (HL-60(TB) leukemia): > 100 µM | TGI (OVCAR-4 ovarian): > 100 µM | TGI (HOP-62 NSCLC): > 100 µM | TGI (UACC-257 melanoma): > 100 µM | TGI (SK-MEL-2 melanoma): > 100 µM | TGI (SK-MEL-28 melanoma): > 100 µM | TGI (DU-145 prostate): > 100 µM

Cc1cc(OCc2nnc3sc(NC(=O)c4ccccc4)nn23)ccc1Cl
TGI (HL-60(TB) leukemia): > 100 µM | TGI (OVCAR-4 ovarian): > 100 µM | TGI (HOP-62 NSCLC): 48.2 µM | TGI (UACC-257 melanoma): > 100 µM | TGI (SK-MEL-2 melanoma): 80.5 µM | TGI (SK-MEL-28 melanoma): > 100 µM | TGI (DU-145 prostate): 58.4 µM

COc1ccc2c(c1)-c1c(c3cc(OC)ccc3n1CCN(C)C)CC2
TGI (OVCAR-4 ovarian): 33.1 µM | TGI (HOP-62 NSCLC): 29.9 µM | TGI (UACC-257 melanoma): 29.4 µM | TGI (SK-MEL-2 melanoma): 29 µM | TGI (SK-MEL-28 melanoma): 30.4 µM | TGI (DU-145 prostate): 26.7 µM

Oc1c(OCc2nnc(CCCCCCCCc3nnc(COc4ccc5ccccc5c4O)o3)o2)ccc2ccccc12
TGI (OVCAR-4 ovarian): > 100 µM | TGI (UACC-257 melanoma): > 100 µM | TGI (SK-MEL-2 melanoma): > 100 µM | TGI (SK-MEL-28 melanoma): > 100 µM | TGI (DU-145 prostate): > 100 µM

O=P(OCc1ccccc1)(OCc1ccccc1)C(O)/C=C/c1ccccc1 (centres undefined)
TGI (HL-60(TB) leukemia): 44.3 µM | TGI (OVCAR-4 ovarian): 56.1 µM | TGI (HOP-62 NSCLC): 55.5 µM | TGI (UACC-257 melanoma): 38.6 µM | TGI (SK-MEL-2 melanoma): 43.8 µM | TGI (SK-MEL-28 melanoma): > 100 µM | TGI (DU-145 prostate): > 100 µM

N#C/C(=C\c1cccc(Br)c1)c1nc2ccccc2c(=O)[nH]1
TGI (HL-60(TB) leukemia): > 100 µM | TGI (OVCAR-4 ovarian): > 100 µM | TGI (HOP-62 NSCLC): 62.7 µM | TGI (UACC-257 melanoma): > 100 µM | TGI (SK-MEL-2 melanoma): > 100 µM | TGI (SK-MEL-28 melanoma): > 100 µM | TGI (DU-145 prostate): > 100 µM

C=C1CC(COc2ccc3c(C)c(C)c(=O)oc3c2C)(c2ccccc2)OC1=O (centres undefined)
TGI (HL-60(TB) leukemia): 5.54 µM | TGI (OVCAR-4 ovarian): 4.82 µM | TGI (HOP-62 NSCLC): 20.8 µM | TGI (UACC-257 melanoma): 2.14 µM | TGI (SK-MEL-2 melanoma): 3.91 µM | TGI (SK-MEL-28 melanoma): 5.44 µM | TGI (DU-145 prostate): 6 µM

CN(C)CCCNc1cc(O)c2c(c1O)C(=O)c1ccccc1C2=O
TGI (OVCAR-4 ovarian): 25.4 µM | TGI (HOP-62 NSCLC): 23.3 µM | TGI (UACC-257 melanoma): 26.6 µM | TGI (SK-MEL-2 melanoma): 35.7 µM | TGI (SK-MEL-28 melanoma): 31 µM | TGI (DU-145 prostate): 28 µM

Clc1ccc(OCc2nnc(COc3ccc(OCc4nnc(COc5ccc(Cl)cc5Cl)o4)c(Cl)c3)o2)c(Cl)c1
TGI (HL-60(TB) leukemia): 57.3 µM | TGI (HOP-62 NSCLC): > 100 µM | TGI (UACC-257 melanoma): > 100 µM | TGI (SK-MEL-2 melanoma): > 100 µM | TGI (SK-MEL-28 melanoma): > 100 µM | TGI (DU-145 prostate): > 100 µM

CC1(C)N=C(N)N=C(N)N1c1cccc(OCc2cccc(N)c2)c1
TGI (HL-60(TB) leukemia): 47.5 µM | TGI (OVCAR-4 ovarian): > 100 µM | TGI (HOP-62 NSCLC): > 100 µM | TGI (UACC-257 melanoma): 55 µM | TGI (SK-MEL-2 melanoma): > 100 µM | TGI (SK-MEL-28 melanoma): > 100 µM | TGI (DU-145 prostate): > 100 µM

NC(Cc1[nH]nc2ccccc12)C(=O)O (centres undefined)
TGI (HL-60(TB) leukemia): > 100 µM | TGI (OVCAR-4 ovarian): > 100 µM | TGI (HOP-62 NSCLC): > 100 µM | TGI (UACC-257 melanoma): > 100 µM | TGI (SK-MEL-2 melanoma): > 100 µM | TGI (SK-MEL-28 melanoma): > 100 µM | TGI (DU-145 prostate): > 100 µM

C#CCOCC12C=CC(O1)C1COC(=O)C12 (centres undefined)
TGI (HL-60(TB) leukemia): > 100 µM | TGI (OVCAR-4 ovarian): > 100 µM | TGI (HOP-62 NSCLC): > 100 µM | TGI (UACC-257 melanoma): > 100 µM | TGI (SK-MEL-28 melanoma): > 100 µM | TGI (DU-145 prostate): > 100 µM
